Results taken from patent publication US11806344B2, “Pharmaceutical composition comprising mineralocorticoid receptor antagonist and use thereof” (priority 2016, dated 2023).
Read-outs that look alike come from different tables or passages of the source.

Key:
[1] = tested on: Dahl/ss rats with salt induced renal injury; experiment: Efficacy test in salt-sensitive rats with salt induced renal injury (Example 6); format: in vivo; conditions: Dahl/ss rats on 4% NaCl diet
Experimental: Animals: Male Dahl/Ss Rats
Solid dispersions of Compound I (Compound I:PVPK30=1:8 (w/w)): Solid dispersions of Compound I was formulated with suitable amount of sterile water for injection into suspensions having concentrations of 0.03, 0.10, 0.30 and 1.00 mg/mL, respectively. The suspensions were prepared immediately before use. […]
One week before the experiment, the blood pressures were measured twice in rats by the tail-cuff blood pressure measurement so that rats could accommodate to the blood pressure monitoring operation. Then, immediately before the test, the blood pressure was determined and used as the baseline value. […]
Blood pressure (systolic blood pressure, SBP) measurement: Blood pressure was measured for 6 weeks, once a week, and the blood pressure changes in these groups were analyzed.
Pathological examination for the kidney and heart: At the end of the study, rats were sacrificed painlessly, from which bilateral kidneys and the heart were collected for histopathological analysis. The kidneys were stained using Hematoxylin-Eosin (HE) to semi-quantitatively evaluate renal injuries. The thickness of the left ventricular wall was measured for each heart to analyze the heart injury. […]

[2] = Safety, tolerability and pharmacokinetics in healthy subjects, single dose (Example 7); format: in vivo, human; conditions: human, plasma, oral
Experimental: (§1) Five groups of healthy subjects were given capsules at doses of 0.5 mg (1 capsule, 0.5 mg of Compound I per capsule), 1.0 mg (2 capsules, 0.5 mg of Compound I per capsule), 2.5 mg (1 capsule, 2.5 mg of Compound I per capsule), 10 mg (1 capsule, 10 mg of Compound I per capsule), and 30 mg (3 capsules, 10 mg of Compound I per capsule), each group containing 8 subjects. The drug administration was done only once.
(§2) The capsules mentioned above were the ones prepared in Example 2, i.e., the capsules of Capsule formulation 3 (0.5 mg of Compound I per capsule), Capsule formulation 4 (2.5 mg of Compound I per capsule), and Capsule formulation 5 (10 mg of Compound I per capsule).
(§3) Plasma samples were collected to measure plasma drug concentration, and the pharmacokinetic parameters were analyzed using the non-compartment model. Serum samples were collected to measure serum potassium levels.

healthy subjects = experiment: as above; format: in vivo, human; conditions: single dose 0.5 to 30 mg/day
Experimental: as §1, §2, §3

[3] = Water solubility and permeation of Compound I (statement); format: physicochemical
[4] = Effect of surfactants on absorption in SD rats (Example 4-1); conditions: rat, plasma, oral, 1 mg/kg
Experimental: Blood collection: The animals were fixed and had their tails warmed in a water bath 10 min prior to blood collection; about 100 μL of blood was collected through the tail vein for each animal and put into an anticoagulation tube containing hepatin; the blood samples were subject to centrifugation at 8000 rpm for 6 min at 4° C. to obtain plasma samples, which had to be obtained within 30 minutes after blood was collected; the plasma samples were stored in a freezer at −80° C. for future tests.
Sample analysis: 50 μL of each plasma sample from the freezer was transferred to a centrifugal tube; 100 μL of water and 400 μL of MTBE standard solution (50 ng/mL) were added into the tube and well mixed with the plasma; the obtained mixture was mixed for 10 minutes using a vortex mixer and then subject to centrifugation for 5 minutes (12000 r/min); 300 μL of the supernatant was transferred to another centrifugal tube and blown dry with nitrogen gas; the resultant substance was dissolved in 200 μL of a solution consisting of methanol and water at a ratio of 1:1, of which 20 μL was used for the LC-MS/MS measurement.
Data processing: the compound concentration was output by Analyst 1.6.1 (AB Sciex); the means, standard deviations, and variation coefficients were calculated using Microsoft Excel (no calculation needed if these parameters were directed output by Analyst 1.6.1), and pharmacokinetic parameters were determined using the NCA analysis object in Pharsight Phoenix 6.3.

In the case of N#Cc1ccc(N2N=C3c4ccc(C(=O)N5CCC(O)CC5)nc4CC[C@@H]3[C@@H]2C2CCCC2)cc1Cl [Compound I, 2-chloro-4-[(3S,3aR)-3-cyclopentyl-7-(4-hydroxylpiperidine-1-carbonyl)-3,3a,4,5-tetrahydro-2H-pyrazolo[3,4-f]quinolin-2-yl]benzonitrile], the “AUC0-24 at which the drug takes effect (undulation point of SBP or UACR vs AUC0-24 curve)” value ([1]; 0.3-10 mg/kg/day intragastric twice a day, 42 days) is reported as 100 ng·h/mL, the “SBP and UACR change (observation)” value ([1]; beyond AUC of 100 h*ng/mL) is reported as “SBP and UACR were significantly decreased” and the half-life ([2]; single dose 0.5 mg) is reported as 61.5 h. The AUC(0-t) ([2]; single dose 0.5 mg capsule, read-out: AUC0-24) was 162 ng·h/mL, the half-life ([2]; single dose 1.0 mg) was 60.9 h and the AUC(0-t) ([2]; single dose 1.0 mg capsules, read-out: AUC0-24) was 397 ng·h/mL. For the same compound, the half-life ([2]; single dose 2.5 mg) was 53.3 h, the AUC(0-t) ([2]; single dose 2.5 mg capsule, read-out: AUC0-24) was 640 ng·h/mL and the half-life ([2]; single dose 10 mg) was 52.8 h. It also gave an AUC(0-t) ([2]; single dose 10 mg capsule, read-out: AUC0-24) of 3080 ng·h/mL, a half-life ([2]; single dose 30 mg) of 73.9 h and an AUC(0-t) ([2]; single dose 30 mg capsules, read-out: AUC0-24) of 5020 ng·h/mL. The half-life ([2]; single dose 0.5 to 30 mg/day) was roughly 60 h, the AUC(0-t) ([2]; single dose 0.5 to 30 mg/day, read-out: AUC0-24 (range over dose groups)) was 162 to 5020 ng·h/mL and the “serum potassium level (observation)” value (healthy subjects) was “no elevated serum potassium level was observed”. For the same compound, the permeation rate [3] was “medium”, the solubility in water [3] was “insoluble in water” and the bioavailability [4] was 64.7%.
